According to ChEMBL document CHEMBL4813981, “Synthesis and in vitro antibacterial activity of new aminothiazole-oximepiperidone cephalosporins” (2021):
Values after ≈ are worked out from the molar mass of the structure shown.

Experiments:
Escherichia coli [1] = experiment: Bactericidal activity against ESBLs negative carbapenem-sensitive Escherichia coli 17-20 assessed as reduction in bacterial growth in the presence of avibactam; format: functional
Acinetobacter baumannii [2] = experiment: Antibacterial activity against Acinetobacter baumannii NCTC 13304 assessed as reduction in bacterial growth in the presence of Avibactam; format: functional
Klebsiella aerogenes [3] = experiment: Antibacterial activity against Enterobacter aerogenes 15-3 assessed as reduction in bacterial growth
Klebsiella pneumoniae [4] = experiment: Antibacterial activity against Klebsiella pneumoniae ATCC 700603 assessed as reduction in bacterial growth; format: functional
Pseudomonas aeruginosa [5] = experiment: Antibacterial activity against Carbapenem- resistant Pseudomonas aeruginosa 17-1 assessed as reduction in bacterial growth in the presence of Avibactam; format: functional
Klebsiella pneumoniae [6] = experiment: Antibacterial activity against Carbapenem- resistant Klebsiella pneumoniae KR 15-13 assessed as reduction in bacterial growth in the presence of Avibactam; format: functional
Pseudomonas aeruginosa [7] = experiment: Bactericidal activity against carbapenem-sensitive Pseudomonas aeruginosa 17-10 assessed as reduction in bacterial growth in the presence of avibactam; format: functional
Acinetobacter baumannii [8] = experiment: Bactericidal activity against Carbapenem- resistant Acinetobacter baumannii 17-3 assessed as reduction in bacterial growth in the presence of avibactam; format: functional
Enterococcus faecalis = experiment: Antibacterial activity against Enterococcus faecalis ATCC 51299 assessed as reduction in bacterial growth; format: functional
Klebsiella pneumoniae [9] = experiment: Antibacterial activity against ESBLs positive Carbapenem-sensitive Klebsiella pneumoniae 17-6 assessed as reduction in bacterial growth
Klebsiella aerogenes [10] = experiment: Bactericidal activity against Enterobacter aerogenes 17-3 assessed as reduction in bacterial growth in the presence of avibactam; format: functional
Escherichia coli [11] = experiment: Bactericidal activity against Escherichia coli NCTC 13353 assessed as reduction in bacterial growth; format: functional
Pseudomonas aeruginosa [12] = experiment: Antibacterial activity against Carbapenem- sensitive Pseudomonas aeruginosa 17-30 assessed as reduction in bacterial growth; format: functional
Enterobacter cloacae [13] = experiment: Antibacterial activity against Enterobacter cloacae 17-7 assessed as reduction in bacterial growth in the presence of Avibactam; format: functional
Pseudomonas aeruginosa [14] = experiment: Bactericidal activity against carbapenem-sensitive Pseudomonas aeruginosa 17-9 assessed as reduction in bacterial growth in the presence of avibactam; format: functional
Klebsiella aerogenes [15] = experiment: Bactericidal activity against Enterobacter aerogenes 17-1 assessed as reduction in bacterial growth; format: functional
Acinetobacter baumannii [16] = experiment: Antibacterial activity against Carbapenem- resistant Acinetobacter baumannii 17-10 assessed as reduction in bacterial growth in the presence of Avibactam; format: functional
Pseudomonas aeruginosa [17] = experiment: Bactericidal activity against Carbapenem- resistant Pseudomonas aeruginosa 17-8 assessed as reduction in bacterial growth; format: functional
Pseudomonas aeruginosa [18] = experiment: Antibacterial activity against Carbapenem- resistant Pseudomonas aeruginosa 17-5 assessed as reduction in bacterial growth
Escherichia coli [19] = experiment: Antibacterial activity against Escherichia coli ATCC 25922 assessed as reduction in bacterial growth in the presence of Avibactam; format: functional
Klebsiella pneumoniae [20] = experiment: Bactericidal activity against Carbapenem- resistant Klebsiella pneumoniae KR 15-7 assessed as reduction in bacterial growth; format: functional
Escherichia coli [21] = experiment: Antibacterial activity against Escherichia coli 15-5 overexpressing extended spectrum beta-lactamases assessed as reduction in bacterial growth; format: functional
Klebsiella pneumoniae [22] = experiment: Antibacterial activity against Carbapenem- resistant Klebsiella pneumoniae KR 15-8 assessed as reduction in bacterial growth in the presence of Avibactam; format: functional
Escherichia coli [23] = experiment: Antibacterial activity against Escherichia coli 15-3 overexpressing extended spectrum beta-lactamases assessed as reduction in bacterial growth; format: functional
Escherichia coli [24] = experiment: Antibacterial activity against ESBLs positive Carbapenem-sensitive Escherichia coli 17-15 assessed as reduction in bacterial growth in the presence of Avibactam; format: functional
Escherichia coli [25] = experiment: Bactericidal activity against ESBLs negative carbapenem-sensitive Escherichia coli 17-9 assessed as reduction in bacterial growth in the presence of avibactam; format: functional
Escherichia coli [26] = experiment: Antibacterial activity against Escherichia coli 15-5 overexpressing extended spectrum beta-lactamases assessed as reduction in bacterial growth in the presence of Avibactam; format: functional
Klebsiella pneumoniae [27] = experiment: Antibacterial activity against Multidrug resistant Klebsiella pneumoniae KR 15-2 assessed as reduction in bacterial growth in the presence of Avibactam; format: functional
Acinetobacter baumannii [28] = experiment: Antibacterial activity against Carbapenem- resistant Acinetobacter baumannii 17-2 assessed as reduction in bacterial growth in the presence of Avibactam; format: functional
Klebsiella pneumoniae [29] = experiment: Antibacterial activity against ESBLs positive Carbapenem-sensitive Klebsiella pneumoniae 17-8 assessed as reduction in bacterial growth in the presence of Avibactam; format: functional
Escherichia coli [30] = experiment: Bactericidal activity against ESBLs negative Carbapenem--sensitive Escherichia coli 17-9 assessed as reduction in bacterial growth; format: functional
Klebsiella aerogenes [31] = experiment: Bactericidal activity against Enterobacter aerogenes 17-4 assessed as reduction in bacterial growth in the presence of avibactam; format: functional
Enterobacter cloacae [32] = experiment: Antibacterial activity against Enterobacter cloacae 17-2 assessed as reduction in bacterial growth in the presence of Avibactam; format: functional
Pseudomonas aeruginosa [33] = experiment: Bactericidal activity against Carbapenem- resistant Pseudomonas aeruginosa 17-1 assessed as reduction in bacterial growth in the presence of avibactam; format: functional
Escherichia coli [34] = experiment: Antibacterial activity against ESBLs positive Carbapenem- sensitive Escherichia coli 17-17 assessed as reduction in bacterial growth in the presence of Avibactam; format: functional
Klebsiella pneumoniae [35] = experiment: Antibacterial activity against ESBLs negative Carbapenem-sensitive Klebsiella pneumoniae 17-20 assessed as reduction in bacterial growth in the presence of Avibactam; format: functional
Acinetobacter baumannii [36] = experiment: Bactericidal activity against Carbapenem- resistant Acinetobacter baumannii 17-11 assessed as reduction in bacterial growth in the presence of avibactam; format: functional
Escherichia coli [37] = experiment: Antibacterial activity against ESBLs negative Carbapenem-sensitive Escherichia coli 17-1 assessed as reduction in bacterial growth in the presence of Avibactam; format: functional
Escherichia coli [38] = experiment: Bactericidal activity against ESBLs negative carbapenem-sensitive Escherichia coli 17-7 assessed as reduction in bacterial growth in the presence of avibactam; format: functional
Klebsiella aerogenes [39] = experiment: Antibacterial activity against Enterobacter aerogenes 15-7 assessed as reduction in bacterial growth in the presence of Avibactam; format: functional
Klebsiella pneumoniae [40] = experiment: Antibacterial activity against Carbapenem- resistant Klebsiella pneumoniae KR 15-4 assessed as reduction in bacterial growth in the presence of Avibactam; format: functional
Escherichia coli [41] = experiment: Antibacterial activity against Escherichia coli ATCC 35218 assessed as reduction in bacterial growth; format: functional
Acinetobacter baumannii [42] = experiment: Antibacterial activity against Carbapenem- resistant Acinetobacter baumannii 17-2 assessed as reduction in bacterial growth
Escherichia coli [43] = experiment: Bactericidal activity against ESBLs positive Carbapenem-sensitive Escherichia coli 17-3 assessed as reduction in bacterial growth; format: functional
Pseudomonas aeruginosa [44] = experiment: Bactericidal activity against carbapenem-sensitive Pseudomonas aeruginosa 17-29 assessed as reduction in bacterial growth; format: functional
Klebsiella pneumoniae [45] = experiment: Antibacterial activity against Multidrug resistant Klebsiella pneumoniae KR 15-3 assessed as reduction in bacterial growth in the presence of Avibactam; format: functional
Acinetobacter baumannii [46] = experiment: Antibacterial activity against Multidrug resistant Acinetobacter baumannii AR 15-2 assessed as reduction in bacterial growth; format: functional
Acinetobacter baumannii [47] = experiment: Bactericidal activity against Carbapenem- resistant Acinetobacter baumannii 17-5 assessed as reduction in bacterial growth in the presence of avibactam; format: functional

Question: `Nc1nc(/C(=N/OCc2cc(=O)c(O)cn2O)C(=O)N[C@@H]2C(=O)N3C(C(=O)O)=CCS[C@H]23)cs1` was tested. Which MBC (Escherichia coli [1]) did it give?
Answer: Its MBC is > 0.5 µg/mL.

Question: And the MIC (Acinetobacter baumannii [2])?
Answer: Its MIC is 16 µg/mL.

Question: And the MIC (Klebsiella aerogenes [3])?
Answer: The MIC was > 64 µg/mL.

Question: What about the MIC (Klebsiella pneumoniae [4]) of the same compound?
Answer: Its MIC is 64 µg/mL (≈ 126 µM).

Question: What about the MIC (Pseudomonas aeruginosa [5]) of the same compound?
Answer: Its MIC is 16 µg/mL.

Question: What about the MIC (Klebsiella pneumoniae [6]) of the same compound?
Answer: The MIC was 2 µg/mL.

Question: And the MBC (Pseudomonas aeruginosa [7])?
Answer: The MBC was 4 µg/mL.

Question: What about the MBC (Acinetobacter baumannii [8]) of the same compound?
Answer: Its MBC is 16 µg/mL.

Question: And the MIC (Enterococcus faecalis)?
Answer: The MIC was > 64 µg/mL.

Question: And the MIC (Klebsiella pneumoniae [9])?
Answer: The MIC was 0.5 µg/mL (≈ 0.983 µM).

Question: And the MBC (Klebsiella aerogenes [10])?
Answer: The MBC was 0.5 µg/mL.

Question: And the MBC (Escherichia coli [11])?
Answer: Its MBC is > 64 µg/mL.

Question: What about the MIC (Pseudomonas aeruginosa [12]) of the same compound?
Answer: Its MIC is 1 µg/mL (≈ 1.97 µM).

Question: And the MIC (Enterobacter cloacae [13])?
Answer: Its MIC is 2 µg/mL.

Question: And the MBC (Pseudomonas aeruginosa [14])?
Answer: Its MBC is 4 µg/mL.

Question: What about the MBC (Klebsiella aerogenes [15]) of the same compound?
Answer: The MBC was 64 µg/mL (≈ 126 µM).

Question: What about the MIC (Acinetobacter baumannii [16]) of the same compound?
Answer: The MIC was 16 µg/mL.

Question: What about the MBC (Pseudomonas aeruginosa [17]) of the same compound?
Answer: Its MBC is 64 µg/mL (≈ 126 µM).

Question: And the MIC (Pseudomonas aeruginosa [18])?
Answer: Its MIC is 64 µg/mL (≈ 126 µM).

Question: What about the MIC (Escherichia coli [19]) of the same compound?
Answer: Its MIC is 0.25 µg/mL.

Question: And the MBC (Klebsiella pneumoniae [20])?
Answer: Its MBC is > 64 µg/mL.

Question: And the MIC (Escherichia coli [21])?
Answer: Its MIC is > 64 µg/mL.

Question: And the MIC (Klebsiella pneumoniae [22])?
Answer: The MIC was 4 µg/mL.

Question: And the MIC (Escherichia coli [23])?
Answer: The MIC was 64 µg/mL (≈ 126 µM).

Question: What about the MIC (Escherichia coli [24]) of the same compound?
Answer: The MIC was 0.25 µg/mL.

Question: What about the MBC (Escherichia coli [25]) of the same compound?
Answer: The MBC was 2 µg/mL.

Question: What about the MIC (Escherichia coli [26]) of the same compound?
Answer: The MIC was 0.5 µg/mL.

Question: What about the MIC (Klebsiella pneumoniae [27]) of the same compound?
Answer: Its MIC is 1 µg/mL.

Question: And the MIC (Acinetobacter baumannii [28])?
Answer: The MIC was 16 µg/mL.

Question: And the MIC (Klebsiella pneumoniae [29])?
Answer: Its MIC is 0.5 µg/mL.

Question: What about the MBC (Escherichia coli [30]) of the same compound?
Answer: Its MBC is 2 µg/mL (≈ 3.93 µM).

Question: What about the MBC (Klebsiella aerogenes [31]) of the same compound?
Answer: Its MBC is 1 µg/mL.

Question: And the MIC (Enterobacter cloacae [32])?
Answer: Its MIC is 1 µg/mL.

Question: What about the MBC (Pseudomonas aeruginosa [33]) of the same compound?
Answer: Its MBC is 64 µg/mL.

Question: What about the MIC (Escherichia coli [34]) of the same compound?
Answer: The MIC was 0.5 µg/mL.

Question: What about the MIC (Klebsiella pneumoniae [35]) of the same compound?
Answer: The MIC was 0.06 µg/mL.

Question: What about the MBC (Acinetobacter baumannii [36]) of the same compound?
Answer: The MBC was > 64 µg/mL.

Question: What about the MIC (Escherichia coli [37]) of the same compound?
Answer: The MIC was 0.25 µg/mL.

Question: And the MBC (Escherichia coli [38])?
Answer: Its MBC is 1 µg/mL.

Question: What about the MIC (Klebsiella aerogenes [39]) of the same compound?
Answer: Its MIC is 2 µg/mL.

Question: And the MIC (Klebsiella pneumoniae [40])?
Answer: The MIC was 4 µg/mL.

Question: What about the MIC (Escherichia coli [41]) of the same compound?
Answer: The MIC was 0.5 µg/mL (≈ 0.983 µM).

Question: What about the MIC (Acinetobacter baumannii [42]) of the same compound?
Answer: The MIC was > 64 µg/mL.

Question: What about the MBC (Escherichia coli [43]) of the same compound?
Answer: The MBC was 2 µg/mL (≈ 3.93 µM).

Question: And the MBC (Pseudomonas aeruginosa [44])?
Answer: The MBC was 8 µg/mL (≈ 15.7 µM).

Question: What about the MIC (Klebsiella pneumoniae [45]) of the same compound?
Answer: The MIC was 1 µg/mL.

Question: What about the MIC (Acinetobacter baumannii [46]) of the same compound?
Answer: The MIC was > 64 µg/mL.

Question: What about the MBC (Acinetobacter baumannii [47]) of the same compound?
Answer: The MBC was 16 µg/mL.
